# Data from US20240209028A1, “CNP COMPOUNDS” (priority 2022, published 2024).
# Starred links: 1 amine or outer side, 2 acyl side, 3 side chain; linkers in the order of their positions; H or OH if unused. Positions of bridges follow the written chain, without caps; N, C: chain ends. Residues, ends and D or L forms follow the SMILES beside them. *: point of attachment. C18 diacid = O=C(O)CCCCCCCCCCCCCCCCC(=O)*; γGlu = O=C(O)[C@H](CCC(=O)[*:2])N[*:1]; AEEA = NCCOCCOCC(=O)O
# Target: T1, human natriuretic peptide receptor 2 (hNPR2) (Homo sapiens, UniProt P20594)
# T1 construct: expressed in transfected cells; host or cells: HEK293 (ATCC CRL-1573), clone 35, co-transfected with pGloSensor-42F
# T1 sequence (P20594 23-1047): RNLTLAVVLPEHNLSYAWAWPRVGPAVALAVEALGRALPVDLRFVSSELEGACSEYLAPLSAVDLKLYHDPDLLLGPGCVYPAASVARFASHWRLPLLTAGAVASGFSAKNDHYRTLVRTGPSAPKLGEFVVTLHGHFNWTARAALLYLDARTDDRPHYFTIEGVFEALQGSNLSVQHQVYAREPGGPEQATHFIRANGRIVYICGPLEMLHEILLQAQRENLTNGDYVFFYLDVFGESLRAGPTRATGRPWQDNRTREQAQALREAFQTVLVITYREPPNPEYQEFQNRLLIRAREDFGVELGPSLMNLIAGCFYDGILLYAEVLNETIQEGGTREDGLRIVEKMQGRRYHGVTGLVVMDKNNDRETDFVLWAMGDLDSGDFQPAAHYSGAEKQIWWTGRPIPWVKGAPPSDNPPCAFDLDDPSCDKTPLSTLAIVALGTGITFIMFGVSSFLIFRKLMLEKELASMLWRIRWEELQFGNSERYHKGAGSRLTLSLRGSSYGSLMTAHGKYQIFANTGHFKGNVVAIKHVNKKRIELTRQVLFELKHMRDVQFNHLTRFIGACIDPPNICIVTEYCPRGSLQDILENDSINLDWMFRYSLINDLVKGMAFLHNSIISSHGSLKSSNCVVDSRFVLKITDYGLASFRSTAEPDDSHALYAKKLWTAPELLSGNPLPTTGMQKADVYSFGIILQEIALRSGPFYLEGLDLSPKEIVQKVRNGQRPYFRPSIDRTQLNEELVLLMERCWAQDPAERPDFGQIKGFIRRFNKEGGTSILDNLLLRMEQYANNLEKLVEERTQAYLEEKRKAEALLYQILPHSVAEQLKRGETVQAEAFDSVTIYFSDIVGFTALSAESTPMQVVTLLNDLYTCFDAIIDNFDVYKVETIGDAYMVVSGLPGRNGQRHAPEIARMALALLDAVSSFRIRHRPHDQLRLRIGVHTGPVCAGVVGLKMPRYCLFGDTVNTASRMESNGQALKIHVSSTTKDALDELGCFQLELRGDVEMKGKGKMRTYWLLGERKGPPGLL
# Assay: In vitro hNPR2 activity assay (cGMP GloSensor reporter, HEK293)
# Assay type: cell-based
# Settings: 0% HSA; HEK293-hNPR2/GloSensor cells
# Summary of the method: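 Potency is the EC50 from a four-parameter logistic fit, also expressed relative to the in-plate CNP22 control (×100), with at least two replicates. Compounds (ten concentrations, […], HSA-free diluent with 1% OVA, 0.01% Tween20) were incubated 30 min at 37 °C on HEK293 cells co-expressing hNPR2 and a GloSensor cGMP luciferase. Luminescence detected with Bright-Glo.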
row,SMILES,EC50 [nM]
1,CC[C@H](C)[C@@H]1NC(=O)[C@H](CCCNC(=N)N)NC(=O)[C@H](CC(=O)O)NC(=O)[C@H](CC(C)C)NC(=O)[C@H](CCCCN)NC(=O)[C@H](CC(C)C)NC(=O)CNC(=O)[C@H](Cc2ccccc2)NC(=O)[C@@H](NC(=O)CNC(=O)[C@H](CCC(N)=O)NC(=O)[C@H](CO)NC(=O)[C@H](CC(C)C)NC(=O)CNC(=O)[C@H](CCCCN)NC(=O)[C@H](CCCCN)NC(=O)[C@H](CCC(N)=O)NC(=O)[C@H](C)NC(=O)CNC(=O)[C@H](CCCCN)NC(=O)[C@H](Cc2ccc(O)cc2)NC(=O)[C@H](CCCCN)NC(=O)[C@H](CCCNC(=N)N)NC(=O)[C@H](C)NC(=O)COCCOCCNC(=O)COCCOCCNC(=O)COCCOCCNC(=O)COCCOCCNC(=O)CC[C@H](NC(=O)CC[C@H](NC(=O)CC[C@H](NC(=O)CC[C@H](NC(=O)CC[C@H](NC(=O)CCCCCCCCCCCCCCCCC(=O)O)C(=O)O)C(=O)O)C(=O)O)C(=O)O)C(=O)O)CSSC[C@@H](C(=O)O)NC(=O)CNC(=O)[C@H](CC(C)C)NC(=O)CNC(=O)[C@H](CO)NC(=O)[C@H](CC(C)C)NC(=O)[C@H](CO)NC(=O)CNC1=O [compound 1463] ({C18 diacid-γGlu-γGlu-γGlu-γGlu-γGlu-AEEA-AEEA-AEEA-AEEA}-ARKYKGAQKKGLSQGCFGLKLDRIGSLSGLGC-OH; disulfide 16-32),0.3

# Same assay, conditions: potency relative to CNP22 (0065)
row,SMILES,hNPR2 0% HSA. [EC50% rel CNP] [%]
1,CC[C@H](C)[C@@H]1NC(=O)[C@H](CCCNC(=N)N)NC(=O)[C@H](CC(=O)O)NC(=O)[C@H](CC(C)C)NC(=O)[C@@H]2CCCN2C(=O)[C@H](CC(C)C)NC(=O)CNC(=O)[C@H](Cc2ccccc2)NC(=O)[C@@H](NC(=O)CNC(=O)[C@H](CCCCN)NC(=O)[C@H](CO)NC(=O)[C@H](CC(C)C)NC(=O)CNC(=O)[C@H](CCCCN)NC(=O)[C@H](CCCCN)NC(=O)[C@H](CCC(N)=O)NC(=O)[C@H](C)NC(=O)CNC(=O)[C@H](CCCCN)NC(=O)[C@H](Cc2ccc(O)cc2)NC(=O)[C@H](CCCCN)NC(=O)[C@H](CCCNC(=N)N)NC(=O)[C@H](C)NC(=O)COCCOCCNC(=O)COCCOCCNC(=O)COCCOCCNC(=O)COCCOCCNC(=O)CC[C@H](NC(=O)CC[C@H](NC(=O)CC[C@H](NC(=O)CC[C@H](NC(=O)CC[C@H](NC(=O)CCCCCCCCCCCCCCCCC(=O)O)C(=O)O)C(=O)O)C(=O)O)C(=O)O)C(=O)O)CSSC[C@@H](C(=O)O)NC(=O)CNC(=O)[C@H](CC(C)C)NC(=O)CNC(=O)[C@H](CO)NC(=O)[C@H](CC(C)C)NC(=O)[C@H](CO)NC(=O)CNC1=O [compound 1462] ({C18 diacid-γGlu-γGlu-γGlu-γGlu-γGlu-AEEA-AEEA-AEEA-AEEA}-ARKYKGAQKKGLSKGCFGLPLDRIGSLSGLGC-OH; disulfide 16-32),106.6
2,CC[C@H](C)[C@@H]1NC(=O)[C@H](CCCNC(=N)N)NC(=O)[C@H](CC(=O)O)NC(=O)[C@H](CC(C)C)NC(=O)[C@H](CCCCN)NC(=O)[C@H](CC(C)C)NC(=O)CNC(=O)[C@H](Cc2ccccc2)NC(=O)[C@@H](NC(=O)CNC(=O)[C@H](CCC(N)=O)NC(=O)[C@H](CO)NC(=O)[C@H](CC(C)C)NC(=O)CNC(=O)[C@H](CCCCN)NC(=O)[C@H](CCCCN)NC(=O)[C@H](CCC(N)=O)NC(=O)[C@H](C)NC(=O)CNC(=O)[C@H](CCCCN)NC(=O)[C@H](Cc2ccc(O)cc2)NC(=O)[C@H](CCCCN)NC(=O)[C@H](CCCNC(=N)N)NC(=O)[C@H](C)NC(=O)COCCOCCNC(=O)COCCOCCNC(=O)COCCOCCNC(=O)COCCOCCNC(=O)CC[C@H](NC(=O)CC[C@H](NC(=O)CC[C@H](NC(=O)CC[C@H](NC(=O)CC[C@H](NC(=O)CCCCCCCCCCCCCCCCC(=O)O)C(=O)O)C(=O)O)C(=O)O)C(=O)O)C(=O)O)CSSC[C@@H](C(=O)O)NC(=O)CNC(=O)[C@H](CC(C)C)NC(=O)CNC(=O)[C@H](CO)NC(=O)[C@H](CC(C)C)NC(=O)[C@H](CO)NC(=O)CNC1=O [compound 1463] ({C18 diacid-γGlu-γGlu-γGlu-γGlu-γGlu-AEEA-AEEA-AEEA-AEEA}-ARKYKGAQKKGLSQGCFGLKLDRIGSLSGLGC-OH; disulfide 16-32),20.0
3,CC[C@H](C)[C@@H]1NC(=O)[C@H](CCCNC(=N)N)NC(=O)[C@H](CC(=O)O)NC(=O)[C@H](CC(C)C)NC(=O)[C@@H]2CCCN2C(=O)[C@H](CC(C)C)NC(=O)CNC(=O)[C@H](Cc2ccccc2)NC(=O)[C@@H](NC(=O)CNC(=O)[C@H](CCC(N)=O)NC(=O)[C@H](CO)NC(=O)[C@H](CC(C)C)NC(=O)CNC(=O)[C@H](CCCCN)NC(=O)[C@H](CCCCN)NC(=O)[C@H](CC(N)=O)NC(=O)[C@H](C)NC(=O)CNC(=O)[C@H](CCCCN)NC(=O)[C@H](Cc2ccc(O)cc2)NC(=O)[C@H](CCCCN)NC(=O)[C@H](CCCNC(=N)N)NC(=O)[C@H](C)NC(=O)COCCOCCNC(=O)COCCOCCNC(=O)COCCOCCNC(=O)COCCOCCNC(=O)CC[C@H](NC(=O)CC[C@H](NC(=O)CC[C@H](NC(=O)CC[C@H](NC(=O)CC[C@H](NC(=O)CCCCCCCCCCCCCCCCC(=O)O)C(=O)O)C(=O)O)C(=O)O)C(=O)O)C(=O)O)CSSC[C@@H](C(=O)O)NC(=O)CNC(=O)[C@H](CC(C)C)NC(=O)CNC(=O)[C@H](CO)NC(=O)[C@H](CC(C)C)NC(=O)[C@H](CO)NC(=O)CNC1=O [compound 1464] ({C18 diacid-γGlu-γGlu-γGlu-γGlu-γGlu-AEEA-AEEA-AEEA-AEEA}-ARKYKGANKKGLSQGCFGLPLDRIGSLSGLGC-OH; disulfide 16-32; C-terminus assumed),48.8
4,CC[C@H](C)[C@@H]1NC(=O)[C@H](CCCNC(=N)N)NC(=O)[C@H](CC(=O)O)NC(=O)[C@H](CC(C)C)NC(=O)[C@@H]2CCCN2C(=O)[C@H](CC(C)C)NC(=O)CNC(=O)[C@H](Cc2ccccc2)NC(=O)[C@@H](NC(=O)CNC(=O)[C@H](CCC(N)=O)NC(=O)[C@H](CO)NC(=O)[C@H](CC(C)C)NC(=O)CNC(=O)[C@H](CCCCN)NC(=O)[C@H](CCCCN)NC(=O)[C@H](CCC(N)=O)NC(=O)[C@H](C)NC(=O)CNC(=O)[C@H](CCCCN)NC(=O)[C@H](Cc2ccc(O)cc2)NC(=O)[C@H](CCCCN)NC(=O)[C@H](CCCNC(=N)N)NC(=O)[C@H](C)NC(=O)COCCOCCNC(=O)COCCOCCNC(=O)COCCOCCNC(=O)COCCOCCNC(=O)CC[C@H](NC(=O)CC[C@H](NC(=O)CC[C@H](NC(=O)CC[C@H](NC(=O)CC[C@H](NC(=O)CCCCCCCCCCCCCCCCC(=O)O)C(=O)O)C(=O)O)C(=O)O)C(=O)O)C(=O)O)CSSC[C@@H](C(=O)O)NC(=O)CNC(=O)[C@H](CC(C)C)NC(=O)CNC(=O)[C@H](CO)NC(=O)[C@H](CCSC)NC(=O)[C@H](CO)NC(=O)CNC1=O [compound 1465] ({C18 diacid-γGlu-γGlu-γGlu-γGlu-γGlu-AEEA-AEEA-AEEA-AEEA}-ARKYKGAQKKGLSQGCFGLPLDRIGSMSGLGC-OH; disulfide 16-32),24.0
5,CC[C@H](C)[C@@H]1NC(=O)[C@H](CCCNC(=N)N)NC(=O)[C@H](CC(=O)O)NC(=O)[C@H](CC(C)C)NC(=O)[C@@H]2CCCN2C(=O)[C@H](CC(C)C)NC(=O)CNC(=O)[C@H](Cc2ccccc2)NC(=O)[C@@H](NC(=O)CNC(=O)[C@H](CCC(N)=O)NC(=O)[C@H](CO)NC(=O)[C@H](CC(C)C)NC(=O)CNC(=O)[C@H](CCCCN)NC(=O)[C@H](CCCCN)NC(=O)[C@H](CCC(N)=O)NC(=O)[C@H](C)NC(=O)CNC(=O)[C@H](CCCCN)NC(=O)[C@H](Cc2ccc(O)cc2)NC(=O)[C@H](CCCCN)NC(=O)[C@H](CCCNC(=N)N)NC(=O)[C@H](C)NC(=O)[C@H](CCC(N)=O)NC(=O)[C@@H]2CCCN2C(=O)[C@H](Cc2c[nH]cn2)NC(=O)[C@H](CCC(=O)O)NC(=O)[C@H](CCC(N)=O)NC(=O)COCCOCCNC(=O)COCCOCCNC(=O)CC[C@H](NC(=O)CC[C@H](NC(=O)CC[C@H](NC(=O)CC[C@H](NC(=O)CC[C@H](NC(=O)CCCCCCCCCCCCCCCCC(=O)O)C(=O)O)C(=O)O)C(=O)O)C(=O)O)C(=O)O)CSSC[C@@H](C(=O)O)NC(=O)CNC(=O)[C@H](CC(C)C)NC(=O)CNC(=O)[C@H](CO)NC(=O)[C@H](CC(C)C)NC(=O)[C@H](CO)NC(=O)CNC1=O [compound 1471] ({C18 diacid-γGlu-γGlu-γGlu-γGlu-γGlu-AEEA-AEEA}-QEHPQARKYKGAQKKGLSQGCFGLPLDRIGSLSGLGC-OH; disulfide 21-37),40.2
6,CC[C@H](C)[C@@H]1NC(=O)[C@H](CCCNC(=N)N)NC(=O)[C@H](CC(=O)O)NC(=O)[C@H](CC(C)C)NC(=O)[C@@H]2CCCN2C(=O)[C@H](CC(C)C)NC(=O)CNC(=O)[C@H](Cc2ccccc2)NC(=O)[C@@H](NC(=O)CNC(=O)[C@H](CCC(N)=O)NC(=O)[C@H](CO)NC(=O)[C@H](CC(C)C)NC(=O)CNC(=O)[C@H](CCCCN)NC(=O)[C@H](CCCCN)NC(=O)[C@H](CCC(N)=O)NC(=O)[C@H](C)NC(=O)CNC(=O)[C@H](CCCCN)NC(=O)[C@H](Cc2ccc(O)cc2)NC(=O)[C@H](CCCCN)NC(=O)[C@H](CCCNC(=N)N)NC(=O)[C@H](C)NC(=O)[C@H](CCC(N)=O)NC(=O)[C@@H]2CCCN2C(=O)[C@H](Cc2c[nH]cn2)NC(=O)[C@H](CCC(=O)O)NC(=O)[C@H](CCC(N)=O)NC(=O)COCCOCCNC(=O)COCCOCCNC(=O)CC[C@H](NC(=O)CC[C@H](NC(=O)CC[C@H](NC(=O)CC[C@H](NC(=O)CCCCCCCCCCCCCCCCC(=O)O)C(=O)O)C(=O)O)C(=O)O)C(=O)O)CSSC[C@@H](C(=O)O)NC(=O)CNC(=O)[C@H](CC(C)C)NC(=O)CNC(=O)[C@H](CO)NC(=O)[C@H](CC(C)C)NC(=O)[C@H](CO)NC(=O)CNC1=O [compound 1472] ({C18 diacid-γGlu-γGlu-γGlu-γGlu-AEEA-AEEA}-QEHPQARKYKGAQKKGLSQGCFGLPLDRIGSLSGLGC-OH; disulfide 21-37; C-terminus assumed),52.0
